Assay results published in US20060003399A1, “High throughput actin polymerization assay” (Cytokinetics, Inc., priority 2004, published 2006).

System: PMA-treated THP-1 cells
Experiment: Macrophage podosome formation assay
Format: cell-based, human
Settings: FIG. 13
Experimental: Positive hits from the in vitro screening assays are tested for effects on macrophage podosome formation. Macrophages express Arp2/3 and WASP, the latter of which is required for podosome formation. A typical cell-based secondary assay of this type includes the human monocytic cell ine THP-1, which undergoes macrophage differentiation and podosome formation in response to exposure to the phorbol ester, phorbol-12-myristate-13-acetate (PMA) (50 nM). A nuclear stain and an actin stain are used to detect and quantify the number of podosomes/cell in the absence or presence of positive hits from the in vitro screening assays. An example of the use of this assay is provided in Example 14 and is illustrated in FIG. 13.
In this assay, positive hits from the in vitro screening assays are tested for effects on macrophage podosome formation. […] A nuclear stain and an actin stain are used to quantify the number of podosomes/cell in a culture of differentiated THP-1 cells in the absence or presence of positive hits from the in vitro screening assays. […]
Podosomes in the THP-1 cells were visualized using a nuclear stain and an actin stain as follows. […] The fraction of THP-1 cells positive for podosomes was quantified using Image Express software (Molecular Devices, Inc.). […]

COC(=O)Nc1nc2ccc(C(=O)c3cccs3)cc2[nH]1 [nocodazole]
podosome formation (fraction of THP-1 cells positive for podosomes), in words: prevented podosome formation in PMA-treated THP-1 cells in a dose-dependent manner
